Data set [1] in a line: in vitro. The settings on record: human. As for the experimental part: (§1) A fixed number (7×10^4 cells/dish) of HaCaT cells (human skin keratinocytes) were seeded in each well of a multi-well plate (24 wells). […] MTT (3-(4,5-dimethylthiazol-2-yl)-2,5-diphenyltetrazolium bromide and 300λ bromide-3-(4,5-dimethyl-2-thiazole)-2,5-diphenyltetrazolium) were added and 1 hour later, the supernatant was removed, DMSO was added and the resultant was shook. 200 λ/well of liquid was extracted and added into another multi-well plate (96 wells). ELISA was used to measure the absorbance value (OD570, optical density 570 nm) and calculate the cell cell viability. The experiment was repeated 3 times.
(§2) The MTT test was carried out to examine the effect of β-1 adrenergic receptor antagonists on epithelial cells.
(§3) The MTT test was carried out to examine the effect of first administering β-1 adrenergic receptor antagonist followed by EGFR-TKI on epithelial cells.
(§4) A MTT test was conducted to examine the effect of simultaneously administering a β-1 adrenergic receptor antagonist and an EGFR-TKI on epithelial cells. […] Referring to FIG. 4, FIG. 4 is a schematic diagram showing the c epithelial cell viability after simultaneously contacting an EGFR-TKI and a β-1 adrenergic receptor antagonist with normal epithelial cells.
(§5) The effects on HaCaT cells as well as A549 cancer cells was examined.

For data set [2], the system named is A549 cancer cells (EGFR-mutated lung cancer cells). Nature of the data set: MTT test (cell viability) on A549 cancer cells. The data set is classed as cell-based. As to the method:
as §1
(§6) The effect of EGFR-TKI alone and the simultaneous administration of a β-1 adrenergic receptor antagonist and an EGFR-TKI on cancer cells was examined.
as §5

Data set [3] relates to HaCaT cells (human skin keratinocytes). Nature of the data set: in vitro. As for the experimental part:
as §1, §2, §3, §4, §5

In data set [4] the test system is PC9 cancer cell (EGFR-mutated cancer cell). The settings on record: afatinib and betaxolol administered simultaneously. As for the experimental part: as §1, §6
The subject of data set [5] is EGFRI-induced rosacea. To be noted: 0.25% (w/w) topical. As to the method:
(§7) Patients with EGFR-TKI or anti-EGFR monoclonal antibodies induced epithelial cell damage, for example, rosacea or papulopustular rash, were recruited. A composition comprising β-1 adrenergic receptor antagonist was formulated for topical use, and was administered to recruited patients to observe its therapeutic effect.

Data set [6] deals with EGFR monoclonal antibody-induced papulopustular rash. To be noted: 0.25% (w/w) topical, day 30 of treatment. As to the method: as §7

Broadly, the viability is a read-out of living cells in per cent, often relative to untreated cells. For `CN(C)C/C=C/C(=O)Nc1cc2c(Nc3ccc(F)c(Cl)c3)ncnc2cc1O[C@H]1CCOC1` [Afatinib, afatinib], in data set [1], the viability at 24 h, 0.1 μM came out at 90.6%; the viability at 24 h, 0.5 μM came out at 89.8%; the viability at 24 h, 1 μM came out at 87.2%; the viability at 24 h, 2.5 μM was found to be 64.1%. In addition, the viability at 24 h, 5 μM in data set [1] was 34.8%. In addition, in data set [2] (Homo sapiens, A549), the viability at 1 µM worked out at 101%, the viability at 2.5 µM amounted to 100%, the viability at 5 µM stood at 85.2% and the viability at 10 µM is 73.4%. In addition, in data set [2] (Homo sapiens, A549), the viability at 20 µM was 69.1% and the viability at 50 µM amounted to 26.4%.

Consider `CC(C)NCC(O)COc1ccc(CCOCC2CC2)cc1` (centres unmarked) [Betaxolol, betaxolol], for which, in data set [1] (Cell viability (%)), the viability at 24 h, 10 μM was 92.8%; the viability at 24 h, 20 μM is 91.3%; the viability at 24 h, 40 μM was 91.4%; the viability at 24 h, 80 μM is 90.1%. For the same molecule, in data set [1] (Cell viability (%)), the viability at 24 h, 100 μM stood at 88.1%. In data set [1] (HaCaT cell viability, β-1 adrenergic receptor antagonist only), the viability at 24 h came to 100%. Moreover, the “HaCaT cell viability compared with afatinib only” value in data set [3] (betaxolol and afatinib added simultaneously, 24 hours) was “much improved”. The “effect on cell viability of normal epithelial cells (in words)” value in data set [3] (betaxolol only, up to 100 μM) is recorded as “basically does not affect the cell viability”. For the same molecule, the “inhibitory effect and cytotoxicity on A549 compared with afatinib only” value in data set [2] (afatinib and betaxolol together) was “inhibitory effect was better and cytotoxicity is higher”. Further, in data set [2] (cells only in contact with betaxolol), the “A549 cancer cell viability, betaxolol only” value was 100%. Moreover, the “inhibitory effect and cytotoxicity on PC9 compared with afatinib only” value in data set [4] was “inhibitory effect is better and cytotoxicity is higher”. The “improvement of osimertinib-induced rosacea” value in data set [5] (4th day of treatment) is listed as “significantly improved”. In data set [5] (7th day of treatment), the “improvement of rosacea (FIG. 12)” value is “improved significantly”. Besides, the “improvement of afatinib-induced rosacea” value in data set [5] (14th day of treatment compared to the 1st day) is listed as “significantly improved”. Besides, the “improvement of papules and pustules of Cetuximab-induced papulopustular rash” value in data set [6] is recorded as “significantly improved”.

Consider `CC(C)(C)NC[C@H](O)COc1nsnc1N1CCOCC1` [timolol, Timolol], for which the “HaCaT cell viability compared with afatinib only” value in data set [3] (afatinib concentration fixed, timolol concentration adjusted) is reported as “significantly decreased”. Also, the “A549 cancer cell viability (change, in words)” value is listed as “did not change significantly” in data set [2] (timolol and afatinib simultaneously); “also increased” in data set [2] (timolol increased to 50 μM, with afatinib).

(Values after patent US20230248671A1, “USE OF BETA-1 ADRENERGIC RECEPTOR ANTAGONIST FOR PREPARING COMPOSITIONS FOR REDUCING EPITHELIAL CELL DAMAGE INDUCED BY EPIDERMAL GROWTH FACTOR RECEPTOR INHIBITORS AND INHIBITING CANCER CELLS” (CHANG GUNG MEMORIAL HOSPITAL, LINKOU, priority 2020, published 2023).)
